{
  "source": "patent US7888319B2",
  "about": "“Compositions and methods for promoting wound healing and tissue regeneration” (MUSC Foundation for Research Development, priority 2004, dated 2011)",
  "key": {"[1]": {"system": "brain penetration injury", "test": "Penetration injury of brain in adult rat with hollow fiber membrane (HFM) implant", "format": "in vivo", "procedure": "(b) and (c) show low magnification survey views of sections of brain tissue (cortex) surrounding hollow fiber membrane (HFM) implants filled with ACT peptide (100 μM) plus vehicle gel (b) or collagen vehicle gel alone as control (c). In the control tissue (c), a high density of immunolabeled GFAP-positive astrocytes is observed near the site of injury caused by the HFM. The density of these cells appears to diminish slightly distal from the injury. […] Indeed, the levels of GFAP positive cells are not dissimilar to those seen in normal uninjured brain tissue. The regions of tissue within the white rectangles in figures (b) and (c) are shown at higher magnification in (d) and (e) respectively. In the brain injury treated by ACT peptide (d), it can be seen that GFAP-positive astrocytes are not only less numerous, but are also smaller than those seen in the control injury (e).\n(a) and (b) show low magnification survey views of sections of brain tissue (cortex) surrounding HFM implants (implant or injury border is shown by arrows) filled with control collagen vehicle gel or ACT peptide plus vehicle gel at 1 week following brain penetration injury. In the control tissue (b), a high density of immunolabeled GFAP-positive astrocytes and a low density of NeuN immunolabeled neurons are observed near the site of injury caused by the HFM. The density of these cells appears to diminish and increase, respectively, distal from the HFM. […] The areas in (a) and (b) proximal to the HFMs are shown at high magnification views in (c) and […], respectively. Again, in the control tissue (d) a striking increase in the density of GFAP-positive astrocytes and a reduced density of NeuN-positive neurons is observed compared to ACT peptide treated tissue (c). A complementary pattern is observed near the HFM containing ACT peptide, with NeuN positive neurons predominating over astrocytes (c).\nAnesthetized adult rats were positioned in a stereotaxic apparatus. A midline incision was made on the scalp to expose the skull. A stereotaxic drill was sighted 2 mm posterior to the bregma and 2 holes were drilled with a 1 mm spherical bit, each at 2.5 mm to the right and left of the bregma, and 3.5 mm below the dura. A cerebral lesion was made by inserting an 18-gauge needle. The coordinates were determined from the atlas by Paxinos and Watson (1986). The hollow fiber membrane (HFM) was inserted in the hole and external skin sutures were placed to cover the stab. The ACT peptide was dissolved at 100 μM concentration in a 2% collagen vehicle solution contained within the HFM. […] Reactive astrocytosis associated with inflammation and subsequently with glial scar formation follows a well characterized time course after brain injury in rodent models (Norenberg, 1994; Fawcett and Asher, 1999). […]"}, "[2]": {"system": "5 mm-diameter excisional skin wounds", "test": "Quantitative assessment of wound closure, tissue regeneration and tensile strength of 5 mm excisional skin wounds", "format": "in vivo, mouse", "excerpt": "ACT peptide (n=12) and control (n=8) 5 mm-diameter excisional skin wounds were generated on adult mice as described above. Quantitative assessments of wound closure rate, counts of regenerated hair follicles and tensile strength measurements were then undertaken on the wounded skin at time points up to 90 days following the initial insult. […] Similarly, at 10 days, when most wounds were nearing completion of closure, a highly significant difference was still maintained such that ACT peptide-treated wounds were on average 43% smaller than control wounds. […] Studies were undertaken of the mechanical properties of healed 5 mm diameter excisional wounds at 1 month and 3 months following injury. For mechanical property measurements, the skin samples were obtained after sacrificing the animal and evaluated using a MTS 858 Mini Bionix (MTS Systems Corporation, MN, USA) equipped with a 5 kg load cell. During measurement the skin sample was extended to break at a rate of 0.5 mm/s. Force and extension was measured at break. The tensile strength (stress) and extension to break (strain) was calculated as follows, Stress (N/mm^2)=Force at break (N)/cross-sectional area of sample (mm^2). Strain (%)=[Increase in length at break (mm)/Original length (mm)]×100. Stress and strain calculations for each wounded skin sample was normalized to a normal skin sample from a nearby area collected from the same animal. […] At 3 months, normalized stress to break of peptide-treated wound skin was on average double that of control wounded skin, although the high variance within the treatment group precluded significant mean separation from the control. […] Further, significant improvements in extensibility of peptide-treated wounds were found. […] By contrast, control wounds at 3 months remained only 60% as extensible as normal skin."}, "[3]": {"system": "5 mm diameter excisional skin wounds", "test": "Small (5 mm) excisional skin wounds in adult mice, ACT 1 to ACT 5", "format": "in vivo, mouse", "conditions": "for closure, inflammation, healing and scarring of injuries: 100 μM in pluronic gel, 50-60 μl, applied at 0 and 24 hours, 240 hour time course (10 days), vs gel without peptide; for wound closure rates (area of open wound as % of unclosed wound relative to the control): ~5 mice per condition, Mann-Whitney U-test over the time course", "procedure": "Anesthetized adult mice had 2 small (5 mm diameter) excisional skin wounds made by fine surgical scissors on the neck and (upper) back. The boundaries of the injuries were demarcated by a 5 mm wide circular template cut in a plastic sheet. 50-60 μl of a solution of 20% pluronic gel containing either no (control) or one of the ACT peptides (ACT 2-SEQ ID NO: 1, ACT 1-SEQ ID NO:2, ACT 3-SEQ ID NO:3, ACT 4-SEQ ID NO:4, ACT 5-SEQ ID NO:5) dissolved at concentrations of 100 μM were then applied to the excisional injuries. Control or ACT peptide-containing gel was applied subsequently 24 hours after the initial application. No further applications of control and ACT peptide-containing gel were made after the second application. […] Note that the same wound on the same animal is shown at the different time points during the healing time course. Anesthetized adult mice had 2 small (5 mm diameter) excisional skin wounds made by fine surgical scissors on the neck and (upper) back. The boundaries of the injuries were demarcated by a 5 mm wide circular template cut in a plastic sheet. 50-60 μl of a solution of 30% pluronic gel containing either no (control) or one of the ACT peptides (ACT 2—SEQ ID NO:1, ACT 1—SEQ ID NO:2, ACT 3—SEQ ID NO:3, ACT 4—SEQ ID NO:4, ACT 5—SEQ ID NO:5) dissolved at concentrations of 100 μM were then applied to the excisional injuries. Control or ACT peptide-containing gels were applied subsequently 24 hours after the initial application. No further applications of control and ACT peptide-containing gel were made after the second application. […] Note that the same wound on the same animal is shown at the different time points during the healing time course. The area of open wound was measured during the time course using NIH image according to standard protocols on multiple (˜5 mice per control or treatment condition) adult mice. These individual area measurements were then normalized to (i.e., divided by) the average area measured for the control injuries for a given time point, multiplied by 100 to give a % of unclosed wound relative to the control and then plotted against time. A Mann-Whitney U-test was used to statistically assess the effects of ACT peptides over the time course. […] These treatments provided results with significant p values."}, "[4]": {"system": "NIH-3T3 cells", "test": "In vitro scratch injury of NIH-3T3 monolayer (repopulation, PCNA immunolabeling)", "format": "cell-based", "conditions": "30 μM, 24 hours after scratch", "procedure": "An NIH-3T3 monolayer was pre-treated with ACT 1 peptide (SEQ ID NO:2) for 24 hrs, and “scratch-injured” with a p200 pipette tip. The “scratch injury” was subsequently allowed to “heal” for 24 hours in the presence of (a, b) 30 μM ACT 1 peptide (SEQ ID NO:2), (c, d) 30 μM non-active control peptide (SEQ ID NO: 55), or (e, f) vehicle control solution containing no ACT peptide or control peptide. […] The repopulation of the “scratch injury” occurs in part via migration of the transformed cells crawling into the “scratch injury” area. Figures (b), (d) and (f) show proliferating cell nuclear antigen (PCNA) immunolabeling of cells in the “scratch injury” or at the injury edge.\nNIH-3T3 fibroblasts were “scratch injured” and subject to the continuous presence of 30 μM ACT 1 peptide (SEQ ID NO:2) for 24 hours or the control conditions as outlined in FIG. 2. […] The cells have been labeled with fluorescent phalloidin to aid visualization. ACT peptide-treated cells show low levels of repopulation of the scratch injury area (white double headed arrows).\nNIH-3T3 cells were grown over 2-3 days until forming a near-confluent monolayer on a tissue culture dish according to standard protocols and the monolayer was then pre-treated with ACT 1 peptide (SEQ ID NO:2) for 24 hrs, and “scratch-injured” with a p200 pipette tip. The “scratch injury” was subsequently allowed to repopulate for 24 hours in the presence of 30 μM ACT 1 peptide (SEQ ID NO:2) dissolved in the culture media (FIG. 2a, b) or in presence of two control conditions (FIG. 2c-f). In the first control condition, the “scratch-injured” cells were allowed to repopulate for 24 hours in the presence of a non-active control peptide (as in FIG. 1) dissolved in the culture media at a concentration of 30 μM (FIG. 2c, d). In the second control condition, phosphate buffered saline (PBS) was added to the culture media and the “scratch-injured” cells were allowed to repopulate in the presence of this vehicle control solution containing no ACT peptide or control peptide (FIG. 2e, f). […] The repopulation of the “scratch injury” occurs in part via migration of the transformed cells crawling into the “scratch injury” area. Figures (FIGS. 2b, d, and f) show proliferating cell nuclear antigen (PCNA) immunolabeling of cells in the “scratch injury” or at the injury edge.\nThe cells were labeled with fluorescent phalloidin to aid visualization. ACT peptide-treated cells show low levels of repopulation of the scratch injury area (white double headed arrows)."}},
  "note": "Ends that are not written are not given here.",
  "data": [
    {"sequence": "ACT peptide: alpha Connexin carboxy-Terminal polypeptide used in brain injury and Example 4 studies; sequence not stated there (RQPKIWFPNRRKPWKKRPRPDDLEI; not fully specified (N-terminus))", "values": [
      {"measurement": "density of GFAP-positive astrocytes adjacent the HFM", "setting": "[1]; 100 μM in 2% collagen vehicle within HFM, 1 week after injury, vs collagen vehicle gel", "value": "much lower density"},
      {"measurement": "neurons in the process of fission", "setting": "[1]; 100 μM in HFM, 1 week, high magnification view, relative to the control", "value": "high frequency of neurons in the process of fission"},
      {"measurement": "numbers of NeuN immunolabeled neurons proximal to the HFM", "setting": "[1]; 100 μM in HFM, 1 week, vs control", "value": "higher numbers"},
      {"measurement": "size of GFAP-positive astrocytes", "setting": "[1]; 100 μM in HFM, 1 week, vs control injury", "value": "smaller"},
      {"measurement": "strain (extensibility) required to break wounds", "setting": "[2]; at 1 month, vs control wounds", "value": "modestly improved"},
      {"measurement": "strain to break of peptide-treated wound skin, normalized to normal skin", "setting": "[2]; at 3 months, normalized to normal skin, control wounds 60%", "value": 90, "unit": "%"},
      {"measurement": "normalized stress to break of wound skin", "setting": "[2]; at 3 months, vs control wounded skin, not significant (high variance)", "value": "double"},
      {"measurement": "increase in the number of regenerated hair follicles per unit area of the healed wound over control wounds", "setting": "[2]; at 10 days", "value": 3.2, "unit": "fold"},
      {"measurement": "wound size, smaller than control wounds (average)", "setting": "[2]; at 10 days", "value": 43, "unit": "%"},
      {"measurement": "wound closure relative to control wounds", "setting": "[2]; within 24 hours of peptide treatment, n=12 vs control n=8", "value": "significantly enhanced"}
    ]},
    {"sequence": "KARSDDLSV [ACT 5, 9 amino acids of the carboxy terminus of human Cx40]", "values": [
      {"measurement": "closure, inflammation, healing and scarring of injuries", "setting": "[3]", "value": "closed faster, were significantly less inflamed in appearance, healed faster and scarred less"},
      {"measurement": "wound closure rates (area of open wound as % of unclosed wound relative to the control)", "setting": "[3]; 100 μM", "value": "significantly improved wound closure rates"}
    ]},
    {"sequence": "PSSRASSRASSRPRPDDLEI [ACT 2]", "values": [
      {"measurement": "closure, inflammation, healing and scarring of injuries", "setting": "[3]", "value": "closed faster, were significantly less inflamed in appearance, healed faster and scarred less"},
      {"measurement": "wound closure rates (area of open wound as % of unclosed wound relative to the control)", "setting": "[3]; 100 μM", "value": "significantly improved wound closure rates"}
    ]},
    {"sequence": "RPRPDDLEV [ACT 3]", "values": [
      {"measurement": "closure, inflammation, healing and scarring of injuries", "setting": "[3]", "value": "closed faster, were significantly less inflamed in appearance, healed faster and scarred less"},
      {"measurement": "size of improvement in wound closure over the control, compared among peptides", "setting": "[3]; 100 μM, over the time course", "value": "most pronounced improvements over the control"},
      {"measurement": "wound closure rates (area of open wound as % of unclosed wound relative to the control)", "setting": "[3]; 100 μM", "value": "significantly improved wound closure rates"}
    ]},
    {"sequence": "RPRPDDVPV [ACT 4]", "values": [
      {"measurement": "closure, inflammation, healing and scarring of injuries", "setting": "[3]", "value": "modest improvement in healing over the control"},
      {"measurement": "wound closure rates (area of open wound as % of unclosed wound relative to the control)", "setting": "[3]; 100 μM", "value": "more modest, although consistent, improvement"}
    ]},
    {"sequence": "RQPKIWFPNRRKPWKIELDDPRPR (not fully specified (N-terminus)) [non-active control peptide, reference compound]", "values": [
      {"measurement": "proliferating cell nuclear antigen (PCNA) immunolabeling of cells in the scratch injury or at the injury edge", "setting": "[4]", "value": "brightly labeled proliferating cells seen"},
      {"measurement": "repopulation of the scratch injury area", "setting": "[4]; 24 hrs pre-treatment", "value": "large numbers of cells"}
    ]}
  ]
}
